Source: the NIST ThermoML archive (doi:10.1021/acs.jced.6b00354)

Settings: 101.33 kPa, Liquid, Vibrating tube method

CC(=O)N(C)C [N,N-dimethylethanamide]
Settings | mass density [kg/m3]
283.15 K | 950.189
288.15 K | 945.589
293.15 K | 940.983
298.15 K | 936.38
303.15 K | 931.762
308.15 K | 927.145
313.15 K | 922.523
318.15 K | 917.893
